Source: patent publication US20260193264A1, “BENZOYPARAZINE PYRAZINES AND THEIR USES” (FOGHORN THERAPEUTICS INC., priority 2022, published 2026)

Tests used:
[1] = target: T1, HiBit-BRG1 fusion protein in stable HeLa cell line expressing HiBit-BRG1 and LgBit (Homo sapiens, UniProt P51532); assay: HiBiT-BRG1 cell-based degradation assay (Nano-Glo HiBiT, 24 h); settings: HeLa HiBit-BRG1/LgBit cells; for DC50: read-out: BRMG1 HiBit Degradation IC50; for Dmax: top dose 30 μM, read-out: BRG1 HiBit Degradation Maximum (%)
T1 construct: expressed in transfected cells
Procedure, shortened: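 Stable HeLa line co-expressing HiBiT-BRG1 and LgBiT, compound-treated 24 h; luminescence read after Nano-Glo HiBiT lytic reagent. % degradation normalised between DMSO (high control) and 2 μM reference BRM/BRG1 degrader (low control).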

[2] = target: T2, HiBiT-BRM fusion protein in stable HeLa cell line (Homo sapiens, UniProt P51531); assay: HiBiT-BRM cell-based degradation assay (Nano-Glo HiBiT Lytic Detection, 24 h); design: DC50: scale not given here; settings: HeLa HiBiT-BRM cells; for DC50: read-out: BRM HiBit Degradation IC50; for BRM HiBit Degradation Maximum (%): top dose 30 μM
T2 construct: expressed in transfected cells
Procedure, shortened: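 Stable HiBiT-BRM HeLa cells treated 24 h with 10-point 3-fold dilutions, top final dose 30 μM, in duplicate. Luminescence read after lytic LgBiT reagent. Percent degradation was normalised to DMSO (high control) and 2 μM reference BRM/BRG1 degrader (low control).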

T1 sequence (P51532 whole entry, the tested form may be a part): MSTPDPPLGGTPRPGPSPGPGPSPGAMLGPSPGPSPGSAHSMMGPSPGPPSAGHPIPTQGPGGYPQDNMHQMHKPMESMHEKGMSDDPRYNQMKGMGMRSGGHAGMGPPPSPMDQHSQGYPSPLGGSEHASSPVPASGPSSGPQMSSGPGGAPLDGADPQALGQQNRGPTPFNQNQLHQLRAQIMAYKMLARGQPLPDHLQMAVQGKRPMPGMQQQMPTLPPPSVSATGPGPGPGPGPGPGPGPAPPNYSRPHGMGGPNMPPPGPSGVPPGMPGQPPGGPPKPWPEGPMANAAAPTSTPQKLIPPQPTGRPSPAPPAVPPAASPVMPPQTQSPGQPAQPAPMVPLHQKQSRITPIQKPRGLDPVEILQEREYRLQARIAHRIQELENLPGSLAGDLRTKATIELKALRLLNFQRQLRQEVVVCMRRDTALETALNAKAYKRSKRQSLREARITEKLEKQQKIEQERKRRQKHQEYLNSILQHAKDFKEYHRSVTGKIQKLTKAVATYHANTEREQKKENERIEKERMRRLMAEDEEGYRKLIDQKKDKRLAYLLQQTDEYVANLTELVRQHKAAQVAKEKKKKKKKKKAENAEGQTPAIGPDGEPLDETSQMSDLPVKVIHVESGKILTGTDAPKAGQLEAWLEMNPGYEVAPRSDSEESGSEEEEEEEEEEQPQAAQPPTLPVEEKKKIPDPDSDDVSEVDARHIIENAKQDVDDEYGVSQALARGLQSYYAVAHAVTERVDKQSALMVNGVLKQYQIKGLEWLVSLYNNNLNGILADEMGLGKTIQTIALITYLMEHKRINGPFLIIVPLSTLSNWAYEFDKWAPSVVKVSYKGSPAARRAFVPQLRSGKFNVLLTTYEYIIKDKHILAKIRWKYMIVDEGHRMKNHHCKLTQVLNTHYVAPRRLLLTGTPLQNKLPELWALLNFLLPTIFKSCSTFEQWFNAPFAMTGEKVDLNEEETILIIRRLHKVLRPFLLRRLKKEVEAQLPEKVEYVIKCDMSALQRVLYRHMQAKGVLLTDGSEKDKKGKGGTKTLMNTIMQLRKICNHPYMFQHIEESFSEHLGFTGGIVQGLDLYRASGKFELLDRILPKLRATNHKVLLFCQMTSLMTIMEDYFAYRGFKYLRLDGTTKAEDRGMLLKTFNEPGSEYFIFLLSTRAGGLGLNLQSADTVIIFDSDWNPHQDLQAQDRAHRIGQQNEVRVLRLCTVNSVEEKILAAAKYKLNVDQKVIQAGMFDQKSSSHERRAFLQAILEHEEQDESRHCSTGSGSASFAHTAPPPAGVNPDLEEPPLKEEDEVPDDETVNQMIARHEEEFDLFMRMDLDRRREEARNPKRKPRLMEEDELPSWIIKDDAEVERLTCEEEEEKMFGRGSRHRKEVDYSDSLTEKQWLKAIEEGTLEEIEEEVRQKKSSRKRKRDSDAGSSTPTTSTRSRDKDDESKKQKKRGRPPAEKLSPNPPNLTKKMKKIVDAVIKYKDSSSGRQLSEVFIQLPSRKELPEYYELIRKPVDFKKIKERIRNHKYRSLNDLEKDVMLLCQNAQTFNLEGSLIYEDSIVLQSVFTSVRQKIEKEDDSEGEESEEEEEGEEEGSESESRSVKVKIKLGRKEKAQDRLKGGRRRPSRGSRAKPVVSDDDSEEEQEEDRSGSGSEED
T2 sequence (P51531 whole entry, the tested form may be a part): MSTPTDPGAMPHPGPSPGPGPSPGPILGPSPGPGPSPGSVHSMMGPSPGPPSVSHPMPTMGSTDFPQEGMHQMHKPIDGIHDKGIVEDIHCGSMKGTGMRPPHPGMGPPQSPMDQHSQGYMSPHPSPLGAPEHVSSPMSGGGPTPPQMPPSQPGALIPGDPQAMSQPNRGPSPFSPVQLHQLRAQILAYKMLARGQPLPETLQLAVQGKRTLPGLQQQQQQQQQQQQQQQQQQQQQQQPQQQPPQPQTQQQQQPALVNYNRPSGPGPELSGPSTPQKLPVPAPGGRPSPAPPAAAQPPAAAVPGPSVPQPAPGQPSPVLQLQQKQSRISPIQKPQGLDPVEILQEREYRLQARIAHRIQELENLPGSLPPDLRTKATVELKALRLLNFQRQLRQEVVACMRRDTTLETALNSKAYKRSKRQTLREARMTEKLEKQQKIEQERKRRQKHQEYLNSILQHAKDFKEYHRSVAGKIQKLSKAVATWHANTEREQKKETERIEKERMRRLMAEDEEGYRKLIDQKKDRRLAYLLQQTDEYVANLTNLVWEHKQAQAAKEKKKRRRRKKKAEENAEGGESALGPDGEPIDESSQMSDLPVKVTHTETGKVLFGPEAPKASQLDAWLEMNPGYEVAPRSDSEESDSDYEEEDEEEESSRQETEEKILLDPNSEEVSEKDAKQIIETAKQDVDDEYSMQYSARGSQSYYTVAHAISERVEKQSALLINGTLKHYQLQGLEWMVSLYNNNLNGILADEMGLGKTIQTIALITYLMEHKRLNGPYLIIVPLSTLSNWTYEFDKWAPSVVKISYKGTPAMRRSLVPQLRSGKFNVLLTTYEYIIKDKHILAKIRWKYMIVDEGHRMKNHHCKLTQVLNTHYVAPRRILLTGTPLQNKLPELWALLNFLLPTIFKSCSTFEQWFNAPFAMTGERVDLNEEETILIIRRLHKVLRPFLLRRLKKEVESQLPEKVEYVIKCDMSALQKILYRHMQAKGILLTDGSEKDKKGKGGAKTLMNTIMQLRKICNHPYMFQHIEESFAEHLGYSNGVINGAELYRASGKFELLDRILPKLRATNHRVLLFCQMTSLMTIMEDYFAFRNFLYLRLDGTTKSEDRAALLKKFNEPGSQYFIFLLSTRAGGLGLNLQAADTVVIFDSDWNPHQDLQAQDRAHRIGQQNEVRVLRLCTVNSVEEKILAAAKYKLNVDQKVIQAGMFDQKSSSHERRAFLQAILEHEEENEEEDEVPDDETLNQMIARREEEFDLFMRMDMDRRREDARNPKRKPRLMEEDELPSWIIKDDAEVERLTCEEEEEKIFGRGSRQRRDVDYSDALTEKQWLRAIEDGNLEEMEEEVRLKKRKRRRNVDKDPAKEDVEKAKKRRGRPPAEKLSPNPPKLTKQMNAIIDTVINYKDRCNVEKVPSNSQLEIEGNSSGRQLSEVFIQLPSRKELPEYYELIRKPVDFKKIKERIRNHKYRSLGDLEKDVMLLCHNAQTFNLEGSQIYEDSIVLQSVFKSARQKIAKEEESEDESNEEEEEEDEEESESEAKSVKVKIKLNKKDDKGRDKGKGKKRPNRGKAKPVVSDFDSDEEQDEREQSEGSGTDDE

Structure (SMILES): Cc1ncsc1-c1ccc([C@H](C)NC(=O)[C@@H]2C[C@@H](O)CN2C(=O)[C@@H](c2cc(N3CCOC4(CN(c5ccc6nnc(-c7ccccc7O)cc6c5)C4)C3)no2)C(C)C)cc1 [Compound 146, (2S,4R)-4-hydroxy-1-((R)-2-(3-(2-(3-(2-hydroxyphenyl)cinnolin-6-yl)-5-oxa-2,8-diazaspiro[3.5]nonan-8-yl)isoxazol-5-yl)-3-methylbutanoyl)-N-((S)-1-(4-(4-methylthiazol-5-yl)phenyl)ethyl)pyrrolidine-2-carboxamide]
- DC50 [1]: > 0.01 µM
- Dmax [1]: > 75%
- DC50 [2]: < 0.01 µM
- BRM HiBit Degradation Maximum (%) [2]: A (“A” indicates maximum degradation ≥75%)

Structure (SMILES): Cc1ncsc1-c1ccc([C@H](C)NC(=O)[C@@H]2C[C@@H](O)CN2C(=O)[C@@H](c2cc(N3CCOC4(CCN(c5ccc6nnc(-c7ccccc7O)cc6c5)CC4)C3)no2)C(C)C)cc1 [Compound 147, (2S,4R)-4-hydroxy-1-((R)-2-(3-(9-(3-(2-hydroxyphenyl)cinnolin-6-yl)-1-oxa-4,9-diazaspiro[5.5]undecan-4-yl)isoxazol-5-yl)-3-methylbutanoyl)-N-((S)-1-(4-(4-methylthiazol-5-yl)phenyl)ethyl)pyrrolidine-2-carboxamide]
- DC50 [1]: > 0.01 µM
- Dmax [1]: > 75%
- DC50 [2]: < 0.01 µM
- BRM HiBit Degradation Maximum (%) [2]: A (“A” indicates maximum degradation ≥75%)

Structure (SMILES): Cc1ncsc1-c1ccc([C@H](C)NC(=O)[C@@H]2C[C@@H](O)CN2C(=O)[C@@H](c2cc(N3CCOC4(CCN(c5ccc6cc(-c7ccccc7O)nnc6c5)CC4)C3)no2)C(C)C)cc1 [Compound 148, (2S,4R)-4-hydroxy-1-((R)-2-(3-(9-(3-(2-hydroxyphenyl)cinnolin-7-yl)-1-oxa-4,9-diazaspiro [5.5]undecan-4-yl)isoxazol-5-yl)-3-methylbutanoyl)-N-((S)-1-(4-(4-methylthiazol-5-yl)phenyl)ethyl)pyrrolidine-2-carboxamide]
- DC50 [1]: < 0.01 µM
- Dmax [1]: > 75%
- DC50 [2]: < 0.01 µM
- BRM HiBit Degradation Maximum (%) [2]: A (“A” indicates maximum degradation ≥75%)

Structure (SMILES): Cc1cc2nnc(-c3ccccc3O)cc2cc1-c1cc([C@H](C(=O)N2C[C@H](O)C[C@H]2C(=O)N[C@@H](C)c2ccc(-c3scnc3C)cc2)C(C)C)on1 [Compound 149, (2S,4R)-4-hydroxy-1-((R)-2-(3-(3-(2-hydroxyphenyl)-7-methylcinnolin-6-yl)isoxazol-5-yl)-3-methylbutanoyl)-N-((S)-1-(4-(4-methylthiazol-5-yl)phenyl)ethyl)pyrrolidine-2-carboxamide]
- DC50 [1]: > 0.01 µM
- Dmax [1]: > 50%
- DC50 [2]: < 0.01 µM
- BRM HiBit Degradation Maximum (%) [2]: A (“A” indicates maximum degradation ≥75%)

Structure (SMILES): Cc1ncsc1-c1ccc([C@H](C)NC(=O)[C@@H]2C[C@@H](O)CN2C(=O)[C@H](C(C)C)n2cc(-c3ccc4nnc(-c5cccc(F)c5O)cc4c3)nn2)cc1 [Compound 150, (2S,4R)-1-((S)-2-(4-(3-(3-fluoro-2-hydroxyphenyl)cinnolin-6-yl)-1H-1,2,3-triazol-1-yl)-3-methylbutanoyl)-4-hydroxy-N-((S)-1-(4-(4-methylthiazol-5-yl)phenyl)ethyl)pyrrolidine-2-carboxamide]
- DC50 [1]: < 0.01 µM
- Dmax [1]: > 75%
- DC50 [2]: < 0.01 µM
- BRM HiBit Degradation Maximum (%) [2]: A (“A” indicates maximum degradation ≥75%)

Structure (SMILES): Cc1ncsc1-c1ccc([C@H](C)NC(=O)[C@@H]2C[C@@H](O)CN2C(=O)[C@@H](c2cc(N3CCN4CCN(c5ccc6nnc(-c7ccccc7O)cc6c5)CC4C3)no2)C(C)C)cc1 (stereo partly drawn) [Compound 151, (2S,4R)-4-hydroxy-1-((2R)-2-(3-(8-(3-(2-hydroxyphenyl)cinnolin-6-yl)octahydro-2H-pyrazino[1,2-a]pyrazin-2-yl)isoxazol-5-yl)-3-methylbutanoyl)-N-((S)-1-(4-(4-methylthiazol-5-yl)phenyl)ethyl)pyrrolidine-2-carboxamide]
- Dmax [1]: < 50%
- DC50 [2]: < 0.01 µM
- BRM HiBit Degradation Maximum (%) [2]: A (“A” indicates maximum degradation ≥75%)

Structure (SMILES): Cc1ncsc1-c1ccc([C@H](C)NC(=O)[C@@H]2C[C@@H](O)CN2C(=O)[C@@H](c2cc(N3CC4(C3)CN(c3cc5cc(-c6ccccc6O)nnc5cc3C3CC3)C4)no2)C(C)C)cc1 [Compound 152, (2S,4R)-1-((R)-2-(3-(6-(7-cyclopropyl-3-(2-hydroxyphenyl)cinnolin-6-yl)-2,6-diazaspiro[3.3]heptan-2-yl)isoxazol-5-yl)-3-methylbutanoyl)-4-hydroxy-N-((S)-1-(4-(4-methylthiazol-5-yl)phenyl)ethyl)pyrrolidine-2-carboxamide]
- DC50 [1]: < 0.01 µM
- Dmax [1]: > 75%
- DC50 [2]: < 0.01 µM
- BRM HiBit Degradation Maximum (%) [2]: A (“A” indicates maximum degradation ≥75%)

Structure (SMILES): Cc1ncsc1-c1ccc([C@H](C)NC(=O)[C@@H]2C[C@@H](O)CN2C(=O)[C@@H](c2cc(N3CCC4(CC3)CN(c3ccc5cc(-c6ccccc6O)nnc5c3)CCN4C)no2)C(C)C)cc1 [Compound 153, (2S,4R)-4-hydroxy-1-((R)-2-(3-(4-(3-(2-hydroxyphenyl)cinnolin-7-yl)-1-methyl-1,4,9-triazaspiro[5.5]undecan-9-yl)isoxazol-5-yl)-3-methylbutanoyl)-N-((S)-1-(4-(4-methylthiazol-5-yl)phenyl)ethyl)pyrrolidine-2-carboxamide]
- Dmax [1]: < 50%
- DC50 [2]: < 0.01 µM
- BRM HiBit Degradation Maximum (%) [2]: A (“A” indicates maximum degradation ≥75%)

Structure (SMILES): Cc1ncsc1-c1ccc([C@H](C)NC(=O)[C@@H]2C[C@@H](O)CN2C(=O)[C@@H](c2cc(N3CCCC4(CN(c5ccc6cc(-c7ccccc7O)nnc6c5)C4)C3)no2)C(C)C)cc1 [Compound 154, (2S,4R)-4-hydroxy-1-((R)-2-(3-(2-(3-(2-hydroxyphenyl)cinnolin-7-yl)-2,6-diazaspiro [3.5]nonan-6-yl)isoxazol-5-yl)-3-methylbutanoyl)-N-((S)-1-(4-(4-methylthiazol-5-yl)phenyl)ethyl)pyrrolidine-2-carboxamide]
- DC50 [1]: < 0.01 µM
- Dmax [1]: > 75%
- DC50 [2]: < 0.01 µM
- BRM HiBit Degradation Maximum (%) [2]: A (“A” indicates maximum degradation ≥75%)

Structure (SMILES): Cc1ncsc1-c1ccc([C@H](C)NC(=O)[C@@H]2C[C@@H](O)CN2C(=O)[C@@H](c2cc(N3CCN4CCN(c5ccc6cc(-c7ccccc7O)nnc6c5)CC4C3)no2)C(C)C)cc1 (stereo partly drawn) [Compound 155, (2S,4R)-4-hydroxy-1-((2R)-2-(3-(8-(3-(2-hydroxyphenyl)cinnolin-7-yl)octahydro-2H-pyrazino[1,2-a]pyrazin-2-yl)isoxazol-5-yl)-3-methylbutanoyl)-N-((S)-1-(4-(4-methylthiazol-5-yl)phenyl)ethyl)pyrrolidine-2-carboxamide]
- DC50 [1]: < 0.01 µM
- Dmax [1]: > 75%
- DC50 [2]: < 0.01 µM
- BRM HiBit Degradation Maximum (%) [2]: A (“A” indicates maximum degradation ≥75%)

Structure (SMILES): CNC(=O)[C@@H]1C[C@@H](O)CN1C(=O)[C@@H](c1cc(N2CC3(CN(c4ccc5cc(-c6ccccc6O)nnc5c4)C3)C2)no1)C(C)C [Compound 156, (2S,4R)-4-hydroxy-1-((R)-2-(3-(6-(3-(2-hydroxyphenyl)cinnolin-7-yl)-2,6-diazaspiro[3.3]heptan-2-yl)isoxazol-5-yl)-3-methylbutanoyl)-N-methylpyrrolidine-2-carboxamide]
- Dmax [1]: < 50%
- DC50 [2]: < 0.01 µM
- BRM HiBit Degradation Maximum (%) [2]: A (“A” indicates maximum degradation ≥75%)
